# According to US9006454B2, “Dihydroorotate dehydrogenase inhibitors” (Merck Serono S.A., priority 2009, dated 2015):
# How the values were obtained:
# [1] = test system: Jurkat cells; test: Measurement of cell proliferation (Jurkat cell), XTT assay; type: cell-based; conditions: for inhibition at 1 µM / EC50: Homo sapiens, Jurkat; for inhibition at 1 µM: read-out: % inh Jurkat_cells @ 1 uM (%); for EC50: 72 h, XTT cell viability
# Protocol: See also Roehm, N et al [1991] An improved colorimetric assay for cell proliferation and viability utilizing the tetrazolium salt XTT. J. Immunol. Methods 142:257-265.
# Culture Jurkat cells in T-25 flasks at a density of 0.2×10^6/ml 2-3 days before the day of experiment set up.
# Centrifuge Jurkat T-cell suspension at 1200 rpm for 10 minutes and resuspend cells again in fresh RPMI medium with 10% FBS.
# Count the cells and dilute suspension to a density of 2×10^6 cells/ml. Seed 50 μL of this suspension in each well of a 96 well plate (100,000 cells per well). Keep the edges of the plate empty to avoid evaporation.
# Serially dilute DMSO stocks of compounds to get different concentrations for an EC50 curve. 50 μL of compound diluted in media (2× concentration required in well) is added to each well. DMSO concentration should be kept constant at 0.25-0.5% for all wells.
# Typically, for all compounds with IC50<1 μM, compound concentration can start at 10 μM followed by half log dilutions for a total of 8-10 concentrations. Each concentration has to be tested in triplicate.
# Include controls such as cells without compound (with same DMSO concentration as compound wells), and media control
# Incubate the 96 well plate in a CO2 incubator at 37° C. for 72 hrs before determining cell viability using XTT assay
# XTT assay: to each well, add 50 μL of 1 mg/ml XTT solution with 20 μl of PMS/mL. Read the plates after 2 hours at 465 nm using the spectrophotometer. XTT reading for media without cells is used as background reading.
# Calculate % cell viability assuming that the cells without compound are 100% viable.
# Plot % cell viability as a function of concentration and determine EC50 by using software such as Graph Pad Prism to fit the curve.
# [2] = molecular target: DHODH (Homo sapiens (Human), UniProt Q02127); test: DHODH activity assay (coupled enzyme assay, DCIP reduction, absorbance at 610 nm); type: biochemical; conditions: for inhibition at 10 µM: read-out: inh @ 10 uM hDHODH (%)
# Chain of DHODH (Q02127 whole entry): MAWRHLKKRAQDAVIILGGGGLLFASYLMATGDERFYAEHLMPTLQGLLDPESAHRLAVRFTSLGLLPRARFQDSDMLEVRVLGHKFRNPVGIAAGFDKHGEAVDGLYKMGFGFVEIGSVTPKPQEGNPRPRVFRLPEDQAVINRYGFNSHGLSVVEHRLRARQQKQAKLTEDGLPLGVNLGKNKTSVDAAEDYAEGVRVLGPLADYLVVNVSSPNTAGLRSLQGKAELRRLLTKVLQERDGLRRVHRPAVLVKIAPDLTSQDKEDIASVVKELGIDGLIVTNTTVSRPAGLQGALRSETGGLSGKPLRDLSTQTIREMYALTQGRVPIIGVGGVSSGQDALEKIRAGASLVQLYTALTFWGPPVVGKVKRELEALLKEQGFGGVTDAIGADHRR
# Protocol: The DHODH activity assay is a coupled enzyme assay in which oxidation of DHO and subsequent reduction of ubiquinone are stoichiometrically equivalent to the reduction of DCIP ([…]). The reduction of DCIP is accompanied by a loss of absorbance at 610 nm.
# Buffer Preparation: 50 mM tris HCl, 150 mM KCl, and pH 8.0, 0.8% triton.
# 5 μL of Dimethyl sulfoxide or a compound of formula I in DMSO solution was added to the wells of a 96 well plate. Compounds of formula I were measured at 10 μM.
# Protein along with buffer was added, so that the total volume including the DMSO was 87 μL. Compound and protein were incubated for half an hour at room temperature after mixing. 5 μL of 20 mM solution of L-Dihydroorotic acid, 5 μL of 2 mM solution of Decylubiquinone and 3 μL of 2 mM solution of 2,6-Dichloroindophenol sodium salt hydrate were added to the above solution (total assay volume 100 μL). The mixture was stirred for 2 min and absorbance was recorded at every 10 min at 610 nanometers.
# Percent Inhibition is Calculated as Follows
# Positive control contains DMSO, buffer, enzyme and substrates
# No Enzyme reaction contains DMSO, buffer and substrates
# IC50 determination: • A 2 mM DMSO stock of the compound of formula I to be examined was prepared. ⅓rd dilutions were made as follows:
# 5 μL of each stock of compound of formula I (solution indicated in column 4 of table) was used for each 100 μL assay. Therefore, 5 μL of the 2 mM stock provided 100 μL of 100 μM solution of compound of formula I, when made up with buffer, protein and substrate. See also: Ulrich et al. (2001) Eur. J. Biochem. 268, 1861-1868.
SMILES,inhibition at 1 µM ([1]; compound at 1 uM),IC50 [2],inhibition at 10 µM ([2]; compound at 10 uM),EC50 [1],% inh Jurkat_cells @ 1 uM (%) ([1]; compound at 1 uM),inh @ 10 uM hDHODH (%) ([2]; compound at 10 uM)
Cc1cc(C(=O)O)c2nc(-c3c(F)c(F)c(-c4cccc(NC(=O)C5CCCN5)c4)c(F)c3F)[nH]c2c1 (centres unmarked) [I86],70.8%,815 nM,93.1%,–,–,–
O=C(O)c1cccn2nc(-c3ccc(-c4ccccc4)cc3)nc12 [I122],55.4%,1200 nM,88%,–,–,–
O=C(O)c1cc(Br)cc2[nH]c(-c3ccc(-c4ccccc4)cc3)nc12 [I6],–,574 nM,96.7%,388 nM,–,–
"Cc1cc(C(=O)O)c2nc(-c3ccc(Oc4ccccn4)cc3)[nH]c2c1 [I71, 6-Methyl-2-[4-(pyridin-2-yloxy)-phenyl]-1H-benzoimidazole-4-carboxylic acid]",28.3%,4380 nM,75.5%,–,–,–
O=C(O)c1cccc2nc(-c3c(F)c(F)c(-c4cccc(OCc5ccccc5)c4)c(F)c3F)[nH]c12 [I107],99%,26 nM,108%,–,–,–
Cc1cc(C(=O)O)c2nc(-c3ccc(-c4ccccc4)s3)[nH]c2c1 [I191],17.6%,–,40.7%,–,–,–
O=C(O)c1cccc2[nH]c(-c3ccc(Nc4ccccc4)cc3)nc12 [I55],6.8%,27100 nM,33.2%,–,–,–
O=C(O)c1cccc2[nH]c(-c3ccc(-c4ccncc4)cc3)nc12 [I57],12.6%,–,58%,–,–,–
Cc1cc(C(=O)O)c2nc(-c3ccc(-c4ccc(OCCCN5CCOCC5)cc4)cc3)[nH]c2c1 [I87],35.7%,3020 nM,74.1%,–,–,–
Cc1cc(C(=O)O)c2nc(-c3ccc(-c4ccc(S(N)(=O)=O)cc4)cc3)[nH]c2c1 [I174],9%,–,43%,–,–,–
O=C(O)c1cc(Cl)cc2[nH]c(-c3ccc(-c4ccccc4)cc3F)nc12 [I44],64.9%,659 nM,97.3%,–,–,–
Cn1cc(-c2ccc(-c3nc4cccc(C(=O)O)c4[nH]3)cc2)cn1 [I186],13.5%,–,31.9%,–,–,–
Cc1cc(C(=O)O)c2nc(-c3ccc(-c4ccc(OCc5ccncc5)cc4)cc3)[nH]c2c1 [I114],49%,1730 nM,65%,–,–,–
Cc1cc(-c2nnc(O)o2)c2nc(-c3c(F)c(F)c(-c4ccccc4)c(F)c3F)[nH]c2c1 [I159],13.4%,–,32.3%,–,–,–
O=C(O)c1cccc2[nH]c(-c3ccc(-c4cccc(F)c4)cc3)nc12 [I17],23.5%,3790 nM,65.2%,–,–,–
O=C(O)c1cccc2[nH]c(-c3ccc(-c4cccc(OC(F)(F)F)c4)cc3)nc12 [I18],43.1%,1260 nM,89%,–,–,–
"Cc1cc(C(=O)O)c2[nH]c(-c3ccc(-c4ccccn4)cc3)nc2c1 [I74, 6-Methyl-2-(4-pyridin-2-yl-phenyl)-3H-benzoimidazole-4-carboxylic acid]",18.4%,–,56.6%,–,–,–
Cc1cc(C(=O)O)c2nc(-c3ccc(-c4ccc(OCc5ccccc5)cc4)cc3)[nH]c2c1 [I143],42.2%,1230 nM,87%,–,–,–
O=C(O)c1cccc2[nH]c(-c3ccc(-c4ccc(OCc5cccnc5)cc4)cc3)nc12 [I184],25.4%,–,53.3%,–,–,–
O=C(O)c1cccc2[nH]c(-c3c(F)c(F)c(-c4ccsc4)c(F)c3F)nc12 [I144],68.2%,441 nM,89.8%,–,–,–

SMILES,inhibition at 1 µM ([1]; compound at 1 uM),IC50 [2],inhibition at 10 µM ([2]; compound at 10 uM),EC50 [1],% inh Jurkat_cells @ 1 uM (%) ([1]; compound at 1 uM),inh @ 10 uM hDHODH (%) ([2]; compound at 10 uM)
O=C(O)c1cccc2[nH]c(-c3ccc(-c4ccc(CO)cc4)cc3)nc12 [I173],44%,–,80%,–,–,–
Cc1cc(C(=O)O)c2nc(-c3c(F)c(F)c(-c4cc(F)cc(F)c4)c(F)c3F)[nH]c2c1 [I146],89.9%,21 nM,96.4%,13 nM,–,–
Cc1cc(C(=O)O)c2[nH]c(-c3c(F)c(F)c(-c4ccccc4OCc4ccccc4)c(F)c3F)nc2c1 [I100],96.2%,60 nM,104%,–,–,–
Cc1cc(C(=O)O)c2[nH]c(-c3c(F)c(F)c(-c4ccc(O)cc4)c(F)c3F)nc2c1 [I96],102%,16 nM,98.4%,–,–,–
Cc1cc(C(=O)O)c2[nH]c(-c3ccc(-c4ccc(CN(C)C)cc4)cc3)nc2c1 [I161],9.7%,–,43.3%,–,–,–
Cc1cc(C(=O)O)c2nc(-c3c(F)c(F)c(-c4ccccc4)c(F)c3F)[nH]c2c1 [I41],103%,6.8 nM,103%,18 nM,–,–
Cc1cc(C(=O)OCCO)c2[nH]c(-c3c(F)c(F)c(-c4ccccc4)c(F)c3F)nc2c1 [I156],31.4%,–,69.1%,–,–,–
O=C(O)c1cccc2[nH]c(-c3c(F)c(F)c(-c4cccc(OC(F)(F)F)c4)c(F)c3F)nc12 [I148],88.6%,218 nM,103%,–,–,–
O=C(O)c1cccc2[nH]c(-c3c(F)c(F)c(-c4ccc(F)c(F)c4)c(F)c3F)nc12 [I130],23.2%,1220 nM,66.9%,–,–,–
Cc1cc(C(=O)O)c2nc(-c3c(F)c(F)c(-c4ccc(F)c(F)c4)c(F)c3F)[nH]c2c1 [I145],75.8%,314 nM,95.6%,–,–,–
"CC(=O)c1cccc2[nH]c(-c3ccc(-c4ccccc4)cc3)nc12 [I69, 1-(2-Biphenyl-4-yl-1H-benzoimidazol-4-yl)-ethanone]",9.2%,–,12.5%,–,–,–
O=C(O)c1cccc2[nH]c(-c3ccc(S(=O)(=O)c4ccccc4)cc3)nc12 [I54],8%,–,26.6%,–,–,–
"Cc1cc(C(=O)O)c2nc(-c3c(F)c(F)c(-c4ccc(CN5CCCCC5)cc4)c(F)c3F)[nH]c2c1 [I83, 6-Methyl-2-(2,3,5,6-tetrafluoro-4′-piperidin-1-ylmethyl-biphenyl-4-yl)-1H-benzoimidazole-4-carboxylic acid]",93%,78 nM,111%,–,–,–
Cc1cc(C(=O)O)c2c(c1)nc(-c1c(F)c(F)c(-c3ccc(O)cc3)c(F)c1F)n2CCO [I94],82.5%,78 nM,89.7%,–,–,–
Cc1cc(C(=O)O)c2c(c1)nc(-c1c(F)c(F)c(-c3ccccc3)c(F)c1F)n2C [I123],111%,3 nM,105%,41 nM,–,–
"Cc1cc(C(=O)O)c2nc(-c3c(F)c(F)c(-n4c(C)ccc4C)c(F)c3F)[nH]c2c1 [I82, 2-[4-(2,5-Dimethyl-pyrrol-1-yl)-2,3,5,6-tetrafluoro-phenyl]-6-methyl-1H-benzoimidazole-4-carboxylic acid]",106%,5.6 nM,111%,–,–,–
Cc1cc(C(=O)O)c2[nH]c(-c3ccc(-c4ccc(F)cc4F)cc3)nc2c1 [I33],50.5%,1420 nM,91.3%,–,–,–
O=C(O)c1cccc2[nH]c(-c3ccc(-c4ccc(OCc5ccccn5)cc4)cc3)nc12 [I182],26.9%,–,57.7%,–,–,–
O=C(O)c1cc(Cl)cc2c1N=C(c1ccc(-c3ccccc3)cc1)C2 [I51],–,2320 nM,–,–,39.5%,86.4%
